Laboratory results as given in patent US11554127B2, “Synergistic antitumor effect of Bcl-2 inhibitor combined with rituximab and/or bendamustine or Bcl-2 inhibitor combined with CHOP” (ASCENTAGE PHARMA (SUZHOU) CO., LTD., priority 2018, dated 2023).
Read-outs that look alike come from different tables or passages of the source.

Experiments:
[1] = tested on: human OCI-LY8 (DLBCL) mouse xenograft tumor; format: in vivo
Description: (§1) All animal experiments were strictly in accordance with the laboratory animal use and management practices of GenePharma Co., Ltd. and Ascentage Pharma Group Co., Ltd. The calculation of relevant parameters referred to the Chinese CFDA “Guidelines for Non-Clinical Research Techniques of Cytotoxic Antitumor Drugs”.
(§2) The animal body weight and tumor size were measured twice weekly during the experiment. The conditions and death of the animals were observed every day. Routine monitoring included the effects of tumor growth and treatment on normal animal behaviors, including activity, feeding and drinking situations, weight gain or loss, eyes, coat and other abnormalities in the experimental animals. The deaths and clinical symptoms observed during the experiment were recorded in the raw data. The entire operations of administration, measurement of mouse body weight and tumor volume were performed in a clean bench. Plasma and tumor tissues were collected, weighed and photographed after the end of the last administration according to the experimental protocol. Plasma and tumor samples were snap frozen and stored at −80° C.
(§3) Tumor volume (TV) was calculated as: TV=a×b2/2, in which a and b represented the length and width of the tumor as measured, respectively. The relative tumor volume (RTV) was calculated as: RTV=Vt/V1, in which V1 was the tumor volume at the time of grouping and administration, and Vt was the tumor volume measured on a day after administration. […] Change of body weight %=(measured body weight−body weight at the time of grouping)/body weight at the time of grouping×100%.
(§4) If the synergy factor was >1, there was a synergistic effect; if the synergistic factor=1, there was an additive effect; if the synergistic factor <1, there was an antagonistic effect.
Bendamustine was an FDA approved drug for the treatment of B-cell non-Hodgkin's lymphoma.

[2] = tested on: human DOHH2 (FL) mouse xenograft tumor; format: in vivo; conditions: day 15; for Tumor remission on the 15th day after administration: CR: animals with CR/group; for Tumor remission on the 15th day after administration: PR: animals with PR/group
Description: as §1, §2, §3, §4
CHOP included: cyclophosphamide, 20 mg/kg, intraperitoneal injection, administered on the 1st and 9th days; doxorubicin, 2 mg/kg, intravenous injection, administered on the 1st day; vincristine, 0.1 mg/kg, intravenous injection, administered on the 1st and 9th days; prednisone, 0.5 mg/kg, orally administered on the 1st day. […] The injected dose was 10 mL/kg (0.2 mL/mouse). The agent was dissolved in saline. […] The agent was dissolved in saline. Vincristine (batch number 0708v1) was purchased from Shenzhen Main Luck Pharmaceuticals Inc. Vincristine was administered by intravenous injection at a dose of 10 mL/kg (0.2 mL/mouse). The agent was dissolved in saline. Prednisone (batch number M0412A) was purchased from Dalian Meilun Biotechnology Co., Ltd. Prednisone was administered by oral gavage at a dose of 10 mL/kg (0.2 mL/mouse). […] The dosage formulations were prepared freshly prior to use. The preparation and use of the dosage formulations were always carried out under sterile conditions.

[3] = tested on: DOHH2; experiment: in vitro cell experiments, sensitivity of DOHH2 cell line; format: cell-based; conditions: DOHH2 human follicular lymphoma cell line
[4] = tested on: OCI-LY8 cells; experiment: in vitro experiment, sensitivity of OCI-LY8 cells; format: cell-based; conditions: OCI-LY8 human DLBCL cell line
Description: (1) The experimental method was as described in Example 1. In the in vitro experiment, OCI-LY8 cells were also human DLBCL cell lines sensitive to Compound 6 treatment, with an IC50 value of 0.006±0.002 μM. Therefore, this experiment used OCI-LY8 cells to establish a mouse xenograft tumor model (A. Esteve-Arenys et al. The BET bromodomain inhibitor CP1203 overcomes resistance to ABT-199 (venetoclax) by downregulation of BFL-1/A1 in in vitro and in vivo models of MYC+/BCL2+ double hit lymphoma. Oncogene 37(14). January 2018), and thereby evaluated the anti-tumor effect of Compound 6 in combination with rituximab.

[5] = tested on: human Toledo (DLBCL) mouse xenograft tumor; format: in vivo; conditions: Compound 6 100 mg/kg p.o. qd×14 days; rituximab 4 mg/kg i.v. qw; day 15
Description: as §1, §2, §3, §4

[6] = tested on: Toledo; experiment: in vitro cell experiments, sensitivity of Toledo cell line; format: cell-based; conditions: Toledo human DLBCL cell line
[7] = Cpd. 6 25 mg/kg p.o. qd×15d, day 11
[8] = Cpd. 6 50 mg/kg p.o. qd×15d, alone or + rituximab 4 mg/kg i.v. qw×2 wks, day 11
[9] = Cpd. 6 100 mg/kg p.o. qd×15d, alone or + rituximab 4 mg/kg i.v. qw×2 wks, day 11
[10] = Table 3: Cpd. 6 100 mg/kg p.o. qd, bendamustine 25 mg/kg i.v., rituximab 10 mg/kg i.v., day 11
[11] = Table 4: Cpd. 6 100 mg/kg p.o. qd, bendamustine 25 mg/kg, rituximab 10 mg/kg
[12] = Table 4: Cpd. 6 100 mg/kg, bendamustine 25 mg/kg, rituximab 10 mg/kg
[13] = Table 5: Cpd. 6 100 mg/kg, CHOP regimen
[14] = rituximab alone 4 mg/kg i.v. qw×2 wks, day 11

Compound: O=C(NS(=O)(=O)c1ccc(NC[C@H]2COCCO2)c([N+](=O)[O-])c1)c1ccc(N2CCN(CC3=C(c4ccc(Cl)cc4)CC4(CCC4)CC3)CC2)cc1Oc1cnc2[nH]ccc2c1 [Compound 6, (S)-N-((4-(((1,4-dioxan-2-yl)methyl)amino)-3-nitrophenyl)sulfonyl)-2-((1H-pyrrolo[2,3-b]pyridin-5-yl)oxy)-4-(4-((6-(4-chlorophenyl)spiro[3.5]non-6-en-7-yl)methyl)piperazin-1-yl)benzamide]
- RTV on the 11th day after administration (mean ± standard error) [1, 7]: 6.87 ± 2.1 **^
- T/C (%) on the 11th day after administration [1, 7]: 37%
- Tumor status on the 11th day after administration (remission rate %) [1, 7]: 0%
- Tumor status on the 11th day after administration: CR ([1]; Cpd. 6 25 mg/kg p.o. qd×15d, day 11, animals with CR/group): 0/5 CR,
- Tumor status on the 11th day after administration: PR ([1]; Cpd. 6 25 mg/kg p.o. qd×15d, day 11, animals with PR/group): 0/5
- RTV on the 11th day after administration (mean ± standard error) [1, 8]: 6.19 ± 1.86
- T/C (%) on the 11th day after administration [1, 8]: 33%
- Tumor status on the 11th day after administration (remission rate %) ([1]; Cpd. 6 50 mg/kg, alone or + rituximab 4 mg/kg, day 11): 0%
- Tumor status on the 11th day after administration: CR ([1]; Cpd. 6 50 mg/kg, alone or + rituximab 4 mg/kg, day 11, animals with CR/group): 0/5 CR,
- Tumor status on the 11th day after administration: PR ([1]; Cpd. 6 50 mg/kg, alone or + rituximab 4 mg/kg, day 11, animals with PR/group): 0/5
- RTV on the 11th day after administration (mean ± standard error) [1, 9]: 5.54 ± 1.78
- T/C (%) on the 11th day after administration [1, 9]: 30%
- Tumor status on the 11th day after administration (remission rate %) ([1]; Cpd. 6 100 mg/kg, alone or + rituximab 4 mg/kg, day 11): 0%
- Tumor status on the 11th day after administration: CR ([1]; Cpd. 6 100 mg/kg, alone or + rituximab 4 mg/kg, day 11, animals with CR/group): 0/5 CR,
- Tumor status on the 11th day after administration: PR ([1]; Cpd. 6 100 mg/kg, alone or + rituximab 4 mg/kg, day 11, animals with PR/group): 0/5
- RTV on the 11th day after administration (mean ± standard error) [1, 10]: 5.54 ± 1.78
- T/C (%) on the 11th day after administration [1, 10]: 30%
- On the 11th day after administration (remission rate %) ([1]; Table 3: Cpd. 6 100 mg/kg, bendamustine 25 mg/kg, rituximab 10 mg/kg, day 11): 0%
- On the 11th day after administration: CR ([1]; Table 3: Cpd. 6 100 mg/kg, bendamustine 25 mg/kg, rituximab 10 mg/kg, day 11, animals with CR/group): 0/5 CR,
- On the 11th day after administration: PR ([1]; Table 3: Cpd. 6 100 mg/kg, bendamustine 25 mg/kg, rituximab 10 mg/kg, day 11, animals with PR/group): 0/5
- RTV on the 15th day after administration (mean ± standard error) [2, 11]: 3.06 ± 0.79
- T/C (%) on the 15th day after administration [2, 11]: 28%
- Tumor remission rate on the 15th day after administration % [2, 12]: 0%
- Tumor remission on the 15th day after administration: CR [2, 12]: 0/5
- Tumor remission on the 15th day after administration: PR [2, 12]: 0/5
- RTV on the 15th day after administration (mean ± standard error) ([2]; Table 5: Cpd. 6 100 mg/kg, CHOP (cyclophosphamide 20 mg/kg i.p. d1, d9; doxorubicin 2 mg/kg i.v. d1; vincristine 0.1 mg/kg i.v. d1, d9; prednisone 0.5 mg/kg p.o. d1)): 3.06 ± 0.79
- T/C (%) on the 15th day after administration [2, 13]: 28%
- Tumor remission rate on the 15th day after administration % [2, 13]: 0%
- Tumor remission on the 15th day after administration: CR [2, 13]: 0/5
- Tumor remission on the 15th day after administration: PR [2, 13]: 0/5
- sensitivity of cell line to Compound 6 treatment [3]: relatively sensitive
- IC50 [4]: 6 ± 2 nM
- RTV on the 15th day after administration (mean ± standard error) [5]: 4.93 ± 0.41 ^
- T/C (%) on the 15th day after administration [5]: 38%
- IC50 [6]: 49 ± 5 nM

Compound: Rituximab [reference compound]
- RTV on the 11th day after administration (mean ± standard error) [1, 14]: 1.38 ± 0.69
- T/C (%) on the 11th day after administration [1, 14]: 7%
- Tumor status on the 11th day after administration (remission rate %) ([1]; rituximab alone 4 mg/kg, day 11): 80%
- Tumor status on the 11th day after administration: CR ([1]; rituximab alone 4 mg/kg, day 11, animals with CR/group): 0/5 CR,
- Tumor status on the 11th day after administration: PR ([1]; rituximab alone 4 mg/kg, day 11, animals with PR/group): 4/5
- Tumor status on the 11th day after administration: PR ([1]; rituximab alone 4 mg/kg, day 11, animals with PR/group, listed as rituximab): Four out of five
- RTV on the 22nd day after administration (mean ± standard error) ([1]; rituximab alone 4 mg/kg, day 22, after drug discontinuance): 20.04 ± 5.38 ^
- RTV on the 15th day after administration (mean ± standard error) [5]: 8.99 ± 2.15 ^
- T/C (%) on the 15th day after administration [5]: 69%
